The results in this text go back to ChEMBL document CHEMBL5126581, “Chlorinated benzothiadiazines inhibit angiogenesis through suppression of VEGFR2 phosphorylation” (Bioorg Med Chem, 2022).

Data set [1] relates to HUVEC. The data set is described as follows: Antiangiogenic activity in HUVEC cells assessed as inhibition of VEGF-induced cell proliferation at 20 uM incubated for 48 hrs by MTT assay relative to control. The settings on record: Homo sapiens, values are per cent of control. Format: functional. (Tetrazolium assays rely on reduction of a dye to a coloured formazan, in cell work by metabolically active cells.)

In data set [2] the test system is MDA-MB-468. The experiment in a line: Cytotoxicity against human MDA-MB-468 cells assessed as inhibition of cell growth incubated for 72 hrs by MTS assay. Format: functional, cell-based. The settings on record: MDA-MB-468, 72 h.
Data set [3] in a line: Selectivity index, ratio of IC50 for cytotoxicity against HEK293 cells to IC50 for cytotoxicity against human MDA-MB-468 cells. It is filed as toxicity, cell-based. Particulars: HEK293 cells versus MDA-MB-468 cells, read-out: Ratio IC50.
The nature of data set [4]: Cytotoxicity against HEK293 cells assessed as inhibition of cell growth incubated for 72 hrs by MTS assay. Format: toxicity, cell-based. The settings on record: human.
Data set [5] addresses Vascular endothelial growth factor receptor 2 (Homo sapiens, UniProt P35968). The experiment in a line: Inhibition of VEGFR2 phosphorylation in VEGF-induced HUVEC cells assessed as reduction in pVEGFR2 level at 20 uM incubated for 5 mins by Western blot analysis. Format: cell-based.
Data set [6] concerns the target Carbonic anhydrase 1 (Homo sapiens, UniProt P00915). The experiment in a line: Inhibition of recombinant human carbonic anhydrase 1 assessed as inhibition constant incubated for 1 hr prior to testing by phenol red based stopped-flow CO2 hydration assay.
In data set [7] the target is Carbonic anhydrase 12 (Homo sapiens, UniProt O43570). The data set is described as follows: Inhibition of recombinant human carbonic anhydrase 12 assessed as inhibition constant incubated for 1 hr prior to testing by phenol red based stopped-flow CO2 hydration assay.
The target in data set [8] is Carbonic anhydrase 2 (Homo sapiens, UniProt P00918). The experiment in a line: Inhibition of recombinant human carbonic anhydrase 2 assessed as inhibition constant incubated for 1 hr prior to testing by phenol red based stopped-flow CO2 hydration assay.
In data set [9] the target is Carbonic anhydrase 9 (Homo sapiens, UniProt Q16790). The data set is described as follows: Inhibition of recombinant human carbonic anhydrase 9 assessed as inhibition constant incubated for 1 hr prior to testing by phenol red based stopped-flow CO2 hydration assay.

Active and inactive are the calls of the source. No cut-off for these calls is given here.

Sequence of Carbonic anhydrase 1 (P00915 whole entry): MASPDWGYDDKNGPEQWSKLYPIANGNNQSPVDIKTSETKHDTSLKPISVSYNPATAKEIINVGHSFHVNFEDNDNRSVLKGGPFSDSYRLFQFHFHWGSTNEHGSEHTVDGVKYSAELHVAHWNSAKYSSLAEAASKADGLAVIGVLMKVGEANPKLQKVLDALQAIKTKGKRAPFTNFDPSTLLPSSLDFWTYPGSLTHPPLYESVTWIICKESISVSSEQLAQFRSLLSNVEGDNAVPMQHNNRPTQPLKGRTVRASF
Sequence of Vascular endothelial growth factor receptor 2 (P35968 whole entry): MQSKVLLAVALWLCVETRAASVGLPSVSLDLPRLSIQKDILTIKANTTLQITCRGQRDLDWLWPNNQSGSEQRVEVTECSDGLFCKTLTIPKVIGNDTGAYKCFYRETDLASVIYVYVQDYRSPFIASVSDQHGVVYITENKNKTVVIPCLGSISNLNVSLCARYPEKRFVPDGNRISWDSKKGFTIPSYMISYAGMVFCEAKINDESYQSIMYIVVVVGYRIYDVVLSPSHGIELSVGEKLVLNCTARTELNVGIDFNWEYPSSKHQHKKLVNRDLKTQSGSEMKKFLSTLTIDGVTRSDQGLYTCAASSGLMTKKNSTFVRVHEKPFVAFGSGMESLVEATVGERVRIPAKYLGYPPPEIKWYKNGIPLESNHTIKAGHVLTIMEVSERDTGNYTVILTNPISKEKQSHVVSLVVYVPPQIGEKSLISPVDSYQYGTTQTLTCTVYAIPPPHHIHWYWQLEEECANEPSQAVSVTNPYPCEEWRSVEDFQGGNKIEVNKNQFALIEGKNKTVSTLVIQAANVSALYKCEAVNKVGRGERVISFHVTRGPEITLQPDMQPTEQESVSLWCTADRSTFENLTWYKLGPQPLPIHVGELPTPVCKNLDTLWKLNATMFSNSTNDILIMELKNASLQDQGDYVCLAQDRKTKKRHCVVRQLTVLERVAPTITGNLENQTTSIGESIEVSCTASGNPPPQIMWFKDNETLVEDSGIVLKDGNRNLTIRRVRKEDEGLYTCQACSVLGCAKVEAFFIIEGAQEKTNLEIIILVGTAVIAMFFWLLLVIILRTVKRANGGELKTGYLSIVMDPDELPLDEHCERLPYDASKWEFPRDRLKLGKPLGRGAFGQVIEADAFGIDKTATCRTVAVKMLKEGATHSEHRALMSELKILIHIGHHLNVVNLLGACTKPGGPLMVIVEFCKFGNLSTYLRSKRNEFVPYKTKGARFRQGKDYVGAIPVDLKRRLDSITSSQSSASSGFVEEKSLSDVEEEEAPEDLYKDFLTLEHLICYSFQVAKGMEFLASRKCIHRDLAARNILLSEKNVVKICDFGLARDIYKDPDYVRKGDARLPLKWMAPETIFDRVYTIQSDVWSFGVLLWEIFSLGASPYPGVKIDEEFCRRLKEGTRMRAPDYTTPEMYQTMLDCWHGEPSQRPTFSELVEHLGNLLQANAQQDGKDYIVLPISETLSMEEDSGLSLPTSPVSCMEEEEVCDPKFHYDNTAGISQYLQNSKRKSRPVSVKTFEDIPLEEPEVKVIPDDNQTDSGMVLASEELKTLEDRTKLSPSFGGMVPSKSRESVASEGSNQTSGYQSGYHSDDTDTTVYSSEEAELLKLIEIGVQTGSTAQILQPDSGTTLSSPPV
Sequence of Carbonic anhydrase 12 (O43570 whole entry): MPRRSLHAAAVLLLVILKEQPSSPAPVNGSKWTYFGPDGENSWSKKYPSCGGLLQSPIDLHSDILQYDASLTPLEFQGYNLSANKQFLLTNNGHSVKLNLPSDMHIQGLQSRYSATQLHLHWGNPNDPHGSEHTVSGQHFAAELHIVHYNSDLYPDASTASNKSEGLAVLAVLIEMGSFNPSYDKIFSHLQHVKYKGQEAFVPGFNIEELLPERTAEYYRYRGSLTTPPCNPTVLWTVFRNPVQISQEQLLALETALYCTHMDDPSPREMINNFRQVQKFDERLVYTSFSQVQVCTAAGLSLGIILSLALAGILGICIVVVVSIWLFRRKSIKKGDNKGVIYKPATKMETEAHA

For the molecule `Cc1ccccc1CNC1=NS(=O)(=O)c2ccc(Cl)cc2N1`, the growth, % of control at 20 µM in [1] amounted to 112%. One may read the IC50 as the concentration at which inhibition is half-maximal. Regarding `O=S1(=O)N=C(NCc2ccccc2OC(F)(F)F)Nc2cc(Cl)ccc21`, the IC50 in data set [2] turned out to be 14.9 µM. In addition, in data set [3], the selectivity ratio worked out at 2. Moreover, the growth, % of control at 20 µM in [1] came to 124%. Moreover, in [4], the IC50 at 72 h came out at 30.5 µM.

Take `O=S1(=O)N=C(NCc2ccc(F)cc2)Nc2ccc(Cl)cc21`: the growth, % of control at 20 µM in [1] worked out at 70.4%.

With `O=S1(=O)N=C(NCCc2c[nH]c3ccccc23)Nc2cc(Cl)ccc21`, the growth, % of control at 20 µM in data set [1] was determined as 34.1%. For the molecule `O=S1(=O)N=C(NCc2ccc(OC(F)(F)F)cc2)Nc2ccccc21`, the IC50 in [2] was 71 µM. In addition, in [1], the growth, % of control at 20 µM was determined as 88.6%. As to `O=S1(=O)N=C(NCCCc2ccccc2)Nc2ccccc21`, in data set [1], the growth, % of control at 20 µM turned out to be 53.6%.

Consider `CCCCCC(=O)c1c(O)nc(OC)c(OC)c1O`, for which the IC50 in [2] was 6.71 µM. The selectivity ratio in [3] stood at 3.9. Also, in data set [4], the half-inhibitory concentration (IC50) at 72 h worked out at 25.9 µM. Consider `COc1ccccc1CNC1=NS(=O)(=O)c2cc(F)ccc2N1`, for which the growth, % of control at 20 µM in data set [1] is 29.4%. In the case of `O=S1(=O)N=C(NCCc2ccccc2)Nc2ccc(Cl)cc21`, the growth, % of control at 20 µM in [1] came out at 81.7%.

For `O=S1(=O)N=C(NC2CCCC2)Nc2cc(Cl)ccc21`, the IC50 in data set [2] turned out to be 148 µM. Moreover, the growth, % of control at 20 µM in data set [1] was 174%. With `O=S1(=O)N=C(NCCCc2ccccc2)Nc2cc(Cl)ccc21`, the IC50 in data set [2] amounted to 91.9 µM. The selectivity ratio in [3] is 1.2. The growth, % of control at 20 µM in [1] came to 175%. For the same molecule, in data set [4], the IC50 at 72 h turned out to be 111 µM. Turning to `COc1cccc(CCNC2=NS(=O)(=O)c3ccc(Cl)cc3N2)c1`, in data set [1], the growth, % of control at 20 µM was 103%. Still for that read-out and setting: then `O=S1(=O)NC(=S)Nc2ccc(F)cc21`, with 50.1%; and `Cc1cccc(CNC2=NS(=O)(=O)c3ccc(Cl)cc3N2)c1`, with 125%. As for `Cc1cccc(CNC2=NS(=O)(=O)c3cc(Cl)ccc3N2)c1`, the concentration for half-maximal inhibition (IC50) in data set [2] stood at 117 µM. For the same molecule, the growth, % of control at 20 µM in data set [1] was found to be 145%. In addition, the inhibition result in [5] is “Active”. `O=S1(=O)N=C(NCc2ccc(OC(F)(F)F)cc2)Nc2ccc(Cl)cc21`: the IC50 in data set [2] turned out to be 43.4 µM. Also, the growth, % of control at 20 µM in data set [1] came out at 120%.

Turning to `O=S1(=O)N=C(NCc2ccc(F)cc2F)Nc2ccc(Cl)cc21`, the IC50 in [2] is 45.5 µM. Further, the selectivity ratio in data set [3] was 1.3. The growth, % of control at 20 µM in data set [1] stood at 133%. For the same molecule, the IC50 at 72 h in [4] is 58.9 µM. Take `Cc1ccccc1CNC1=NS(=O)(=O)c2cc(Cl)ccc2N1`: in data set [1], the growth, % of control at 20 µM is 117%. As to `CC(C)C(C)NC1=NS(=O)(=O)c2cc(F)ccc2N1` (centres undefined), the growth, % of control at 20 µM in [1] turned out to be 76.4%.

Consider `O=S1(=O)N=C(NCc2ccccc2)Nc2ccc(Cl)cc21`, for which the growth, % of control at 20 µM in data set [1] came out at 122%. `COc1cccc(CNC2=NS(=O)(=O)c3ccc(Cl)cc3N2)c1`: the growth, % of control at 20 µM in [1] worked out at 129%.

With `O=S1(=O)N=C(NCc2ccc(C(F)(F)F)cc2)Nc2cc(Cl)ccc21`, in data set [1], the growth, % of control at 20 µM worked out at 8.6%. As to `CC(NC1=NS(=O)(=O)c2ccc(Cl)cc2N1)c1ccccc1` (centres undefined), in [2], the IC50 came to 91.1 µM. Also, in [1], the growth, % of control at 20 µM worked out at 40.5%. In the same order, the values of `Cc1ccc(CNC2=NS(=O)(=O)c3cc(Cl)ccc3N2)cc1` are 43.1 µM and 119%.

Turning to `CSC1=NS(=O)(=O)c2ccc(Cl)cc2N1`, the growth, % of control at 20 µM in data set [1] amounted to 20.9%. Regarding `CC(NC1=NS(=O)(=O)c2ccccc2N1)c1ccccc1` (centres undefined), the half-maximal inhibitory concentration (IC50) in [2] was found to be 58.5 µM. Besides, the growth, % of control at 20 µM in [1] was determined as 25.2%. Moreover, the inhibition entry in data set [5] is “Active”. As to `CC(NC1=NS(=O)(=O)c2cc(Br)ccc2N1)c1ccccc1` (centres undefined), the growth, % of control at 20 µM in data set [1] was determined as 104%. Same read-out and setting: then `O=S1(=O)N=C(NCCCc2ccccc2)Nc2ccc(Br)cc21`, with 28.6%.

`O=S1(=O)N=C(NCc2ccccc2)Nc2cc(Cl)ccc21`: the IC50 in data set [2] worked out at 64.2 µM. In addition, the selectivity ratio in data set [3] worked out at 1.5. The growth, % of control at 20 µM in data set [1] is 200%. In [4], the half-maximal inhibitory concentration (IC50) at 72 h stood at 102 µM.

Turning to `O=S1(=O)N=C(NC2CCCC2)Nc2ccc(Cl)cc21`, the IC50 in [2] came to 77 µM. In addition, the inhibition entry in [5] is “Active”. `CC1=Nc2ccc(Cl)cc2S(=O)(=O)N1` [DIAZOXIDE]: the growth, % of control at 20 µM in data set [1] came to 15.2%. For `O=S1(=O)N=C(NCc2ccc(F)cc2F)Nc2cc(Cl)ccc21`, the IC50 in [2] is 84.6 µM. Also, in data set [3], the selectivity ratio was 1.5. The growth, % of control at 20 µM in [1] was determined as 172%. Moreover, in data set [4], the IC50 at 72 h stood at 129 µM. On to `O=S1(=O)N=C(NCc2ccncc2)Nc2ccc(Cl)cc21`, for which the growth, % of control at 20 µM in [1] came to 66.8%.

`O=S1(=O)N=C(NCCc2ccccc2)Nc2ccc(Br)cc21`: the growth, % of control at 20 µM in data set [1] was determined as 52.7%. Take `COc1ccccc1CNC1=NS(=O)(=O)c2ccc(Cl)cc2N1`: the growth, % of control at 20 µM in [1] stood at 83.9%. The Ki is a dissociation constant, usually derived from enzyme kinetics or from competition with a known ligand. With `NS(=O)(=O)c1ccc(CCNC2=NS(=O)(=O)c3ccc(Cl)cc3N2)cc1`, the inhibition constant Ki in [6] came out at 0.0501 µM; in data set [7] it was 0.0038 µM; in [8], 0.0088 µM. In the case of `O=S1(=O)N=C(NCc2ccc(F)cc2F)Nc2ccc(Br)cc21`, the growth, % of control at 20 µM in [1] came out at 127%. Consider `O=S1(=O)N=C(NCCCCc2ccccc2)Nc2ccc(Cl)cc21`, for which, in data set [1], the growth, % of control at 20 µM was determined as 116%. Moreover, the IC50 at 72 h in data set [4] turned out to be 23.4 µM. Turning to `COc1cccc(CNC2=NS(=O)(=O)c3cc(Cl)ccc3N2)c1`, in data set [2], the concentration for half-maximal inhibition (IC50) was greater than 100 µM. Further, in [1], the growth, % of control at 20 µM was determined as 95.5%. The inhibition result in [5] was “Active”. As to `CSC1=NS(=O)(=O)c2cc(F)ccc2N1C`, the growth, % of control at 20 µM in [1] is 70.1%. On the same count and under the same terms, then `O=S1(=O)N=C(NCCc2ccccc2)Nc2cc(Cl)ccc21`, with 197%. For the molecule `O=S1(=O)N=C(NCc2ccc(OC(F)(F)F)cc2)Nc2ccc(Br)cc21`, the Ki in data set [9], in [6], in [7] and in data set [8] was greater than 100 µM throughout. Also, the IC50 in [2] was 39.1 µM. Moreover, in data set [1], the growth, % of control at 20 µM is 127%. Moreover, the inhibition result in data set [5] is “Active”. Take `COc1ccc(CNC2=NS(=O)(=O)c3ccc(Cl)cc3N2)cc1`: the growth, % of control at 20 µM in data set [1] is 132%. Take `COc1ccc(CNC2=NS(=O)(=O)c3cc(Cl)ccc3N2)cc1`: the Ki in data set [9], in data set [6], in data set [7] and in data set [8] was greater than 100 µM each time. For the same molecule, in data set [2], the IC50 turned out to be 62.9 µM. In addition, the growth, % of control at 20 µM in data set [1] turned out to be 90.7%.

In the case of `CCNC1=NS(=O)(=O)c2ccccc2N1`, in data set [1], the growth, % of control at 20 µM was 88.4%. Still for that read-out and setting: then `Cc1ccc(CNC2=NS(=O)(=O)c3ccc(Cl)cc3N2)cc1`, with 146%.

`O=S1(=O)N=C(NCCCc2ccccc2)Nc2ccc(Cl)cc21`: the IC50 in data set [2] was 56.6 µM. Also, the selectivity ratio in data set [3] was found to be 0.5. The growth, % of control at 20 µM in data set [1] is 91.6%. Also, the IC50 at 72 h in [4] turned out to be 30.9 µM. As for `O=S1(=O)N=C(NCCc2c[nH]c3ccccc23)Nc2ccc(F)cc21`, in [1], the growth, % of control at 20 µM turned out to be 41.8%. In the case of `COc1ccc(CCNC2=NS(=O)(=O)c3cc(F)ccc3N2)cc1`, the Ki in data set [9], in data set [6], in data set [7] and in data set [8] was greater than 100 µM throughout. Regarding `CC(NC1=NS(=O)(=O)c2cc(Cl)ccc2N1)c1ccccc1` (centres undefined), in data set [1], the growth, % of control at 20 µM amounted to 53.7%.
